Experimental data as given in patent US20180044343A1, “BICYCLIC IMIDAZOLO DERIVATIVE” (Sumitomo Dainippon Pharma Co., Ltd., priority 2015, published 2018).

Columns and labels:
PDE1A3 [1] = molecular target: T1, PDE1A3 (Homo sapiens, UniProt P54750); experiment: In vitro SPA PDE1 inhibition assay (PDE1A3); format: biochemical; conditions: PDE1A3, [3H]-cGMP 100 nM
Protocol: (§1) The commercially available Scintillation Proximity Assay (SPA) system (Perkinelmer) was used for PDE1 inhibition assays. SPA Yttrium Silicate beads preferentially binds to non-cyclic GMP compared to cyclic GMP (cGMP) in the presence of zinc sulphate, which enables to measure the amount of enzyme reaction product ([^3H]-GMP) by scintillation counting.
(§2) For PDE1 inhibition assay, 10 μl of the test compounds in 5% dimethyl sulfoxide diluted in SPA assay buffer (1 mM CaCl2, 10 mM MgSO4, 10 mM Tris-HCl, pH 7.4) were placed in a 96-well white microtiter plate, and 20 μl of [^3H]-cGMP solution (100 nM final concentration, Perkinelmer) in SPA assay buffer was added. Assays were initiated by adding 20 μl of PDE (1A3, 1B or 1C) enzyme solution including calmodulin (final concentration 1 μg/ml). After 30 min incubation at 27° C., the reaction was stopped by the addition of 50 μl of a suspension of 10 mg/ml SPA beads in 18 mM ZnSO4. The microtiter plates were settled for 60 min, and then were measured in a TopCount NXT scintillation counter (PerkinElmer). IC50 values were determined from sigmoidal curves by plotting the percentage of PDE activity versus log compound concentration. IC50 was defined as the concentration of the test compounds required to inhibit the cyclic nucleotide hydrolyzing activities of tested PDEs by 50%.

PDE1A3 [2] = molecular target: T1, PDE1A3; experiment: In vitro HTRF PDE1 inhibition assay (PDE1A3); format: biochemical; conditions: PDE1A3, 100 nM cyclic GMP
Text: (§3) An exemplary procedure for the in vitro Homogenous Time Resolved Fluorescence assay, which can be used to determine the inhibitory action of compounds of the present invention toward PDE1 or its isoforms, follows.
(§4) The HTRF PDE1 assay utilized the HTRF (Homogenous Time Resolved Fluorescence) technology, which is based on the competition between unlabeled cyclic nucleotide and cyclic nucleotide labeled with XL665 for the binding to cyclic nucleotide-specific antibody labeled with cryptate. The HTRF signal is thus inversely proportional to the concentration of cyclic nucleotide being measured. Since phosphodiesterases break down cyclic nucleotides, the HTRF signal was used to determine PDE activity.
(§5) The Cisbio cGMP HTRF assay kit (Cat no: 62GM2PEC) was utilized. Cyclic GMP was diluted to 200 nM in HTRF assay buffer (1 mM CaCl2, 10 mM MgCl2, 10 mM Tris-HCl, 0.1% BSA, pH 7.4). 10 μl of compound or DMSO was diluted in 200 nM cyclic GMP solution and added to wells of a 96 well white plate to give 100 nM cyclic GMP in 1% DMSO final concentration. PDE (1A3, 1B or 1C) was diluted to 2× working concentration in HTRF assay buffer with 2 μg/ml Calmodulin, and 10 μl was added to initiate the reaction. The plate was then incubated for 45 minutes at 27° C. d2-Labelled cyclic GMP and anti-cGMP cryptate were diluted in 50 mM phosphate buffer, 0.8 M KF, 1% Triton X100, 0.2% BSA, pH 7.0. Following incubation 10 μl d2-cGMP, then 10 μl anti cGMP cryptate were added to each well and the plate was incubated for 60 minutes at room temperature. The plate was then read on Perkin Elmer EnVision at 2 different FRET readings ex/em 340 nm/665 nm and 340 nm/615 nm.
(§6) Compounds having an IC50 of <1 μM are denoted as +++. Compounds having an IC50 of 1-10 μM are denoted as ++. Compounds having an IC50 of 10-100 μM are denoted as +.

PDE1B [3] = molecular target: T2, PDE1B (Homo sapiens, UniProt Q01064); experiment: In vitro SPA PDE1 inhibition assay (PDE1B); format: biochemical; conditions: [3H]-cGMP 100 nM
Protocol: as §1, §2

[4] = Test for drug transportation to brain in rats; format: in vivo; conditions: rat; SD rats, oral, one hour after administration; non-binding drug concentration ratio between brain and plasma
Text: Test for Drug Transportation to Brain in Rats
This test can be used to assess transportation of the compounds of the present invention to the brain. Each compound of the invention was orally administered to 7 week-old SD rats with a 0.5% suspension in methyl cellulose, and each plasma and brain were collected one hour after administration to measure the concentration of each compound in the plasma and the brain with an LC-MS.
Each protein binding ratio of the compounds in the plasma and the brain was measured by the equilibrium dialysis method.
The obtained concentrations and protein binding ratios of the compounds in the plasma and the brain can be applied to the following equation to calculate Kp, uu, brain (i.e., non-binding drug concentration ratio between brain and plasma).
Kp, uu, brain=[Compound concentration in brain×(100−Protein binding ratio in brain (%))/100]/[Compound concentration in plasma×(100−Protein binding ratio in plasma (%))/100]

[5] = Evaluation of bioavailability, PK test in rats; format: in vivo; conditions: rat; 7 week-old SD rats, intravenous vs oral administration, plasma LC-MS
Protocol: This test can be used to assess pharmacokinetics of the compounds of the present invention. Each compound of the invention was administered to 7 week-old SD rats intravenously with a solution in saline: 0.1N HCl=9:1 or orally with a 0.5% suspension in methyl cellulose, and each blood sample was collected at an appropriate interval as follows:
5, 15, and 30 minutes, and 1, 2, 4, 6, and 24 hours after intravenous administration
15 and 30 minutes, and 1, 2, 4, 6, and 24 hours after oral administration
The plasma was obtained from each blood, and the concentration of each compound in the plasma was measured with an LC-MS to calculate each pharmacokinetic parameter based on the concentration change.

PDE1C [6] = molecular target: T3, PDE1C (Homo sapiens, UniProt Q14123); experiment: In vitro SPA PDE1 inhibition assay (PDE1C); format: biochemical; conditions: [3H]-cGMP 100 nM
Protocol: as §1, §2

PDE1C [7] = molecular target: T3, PDE1C; experiment: In vitro HTRF PDE1 inhibition assay (PDE1C); format: biochemical; conditions: 100 nM cyclic GMP
Text: as §3, §4, §5, §6

[8] = test system: cognitive dysfunction in PCP-treated rats; experiment: Novel object recognition test in rats repeatedly treated with phencyclidine (PCP); format: in vivo; conditions: rats given PCP 3 mg/kg i.p. twice a day for 10 days; compound 1 or 3 mg/kg orally 60 minutes before test; compared to PCP+vehicle group
Protocol: Since an N-Methyl-D-aspartate receptor antagonist phencyclidine (PCP) has been known to cause schizophrenia-like symptoms including cognitive dysfunction in humans, PCP-treated animals have been widely used as a schizophrenic animal model. Using rats to which PCP was repeatedly administered as a schizophrenic animal model, the improvement in cognitive dysfunction with the compounds of the invention was evaluated in the novel object recognition test. Rats were habituated to the test environment which is a box (50 cm×50 cm×35 cm) with no object inside for 1 hour per day for 3 days. On the test day, rats were again put into the test box with no object inside to habituate themselves for three minutes. The rats were then put into the test box with two identical objects inside and were made to explore inside for three minutes for a training trial. After one minute, they were put into the test box with one of the objects (i.e., the familiar object) that was the same as used in the training trial and another object (i.e., a novel object) inside and were made to explore inside for three minutes for a test trial. Cognitive function was evaluated on the basis of preference for the novel object in the test trial utilizing rats' habit of exploring a novel object longer than a familiar object. Discrimination Index was calculated from the following equation as an index for preference of a novel object.
Discrimination Index=(Time to explore novel object−Time to explore familiar object)/(Time to explore novel object+Time to explore familiar object)

PDE1B [9] = molecular target: T2, PDE1B; experiment: In vitro HTRF PDE1 inhibition assay (PDE1B); format: biochemical; conditions: in vitro PDE1B HTRF Assay; read-out: IC50

T2 sequence (Q01064 whole entry): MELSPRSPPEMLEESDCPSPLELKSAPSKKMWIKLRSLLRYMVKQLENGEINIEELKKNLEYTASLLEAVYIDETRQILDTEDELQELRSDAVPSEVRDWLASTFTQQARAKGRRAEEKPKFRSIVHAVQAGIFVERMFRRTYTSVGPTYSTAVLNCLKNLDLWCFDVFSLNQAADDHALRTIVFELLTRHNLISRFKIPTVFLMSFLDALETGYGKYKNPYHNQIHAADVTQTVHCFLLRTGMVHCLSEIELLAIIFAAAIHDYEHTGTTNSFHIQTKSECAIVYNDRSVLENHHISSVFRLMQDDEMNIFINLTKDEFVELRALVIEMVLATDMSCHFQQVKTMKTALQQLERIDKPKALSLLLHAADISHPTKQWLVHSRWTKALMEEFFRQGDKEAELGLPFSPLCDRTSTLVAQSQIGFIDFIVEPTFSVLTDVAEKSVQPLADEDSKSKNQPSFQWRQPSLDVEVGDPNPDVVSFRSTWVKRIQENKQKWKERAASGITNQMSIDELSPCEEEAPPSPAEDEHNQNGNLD

- IC50 (PDE1A3 [1]): 0.08 µM
- IC50 (PDE1A3 [2]): < 1 µM
- IC50 (PDE1B [3]): 0.023 µM
- Kp uu at 1 h [4]: 0.61
- bioavailability [5]: 54.5%
- IC50 (PDE1C [6]): 0.276 µM
- IC50 (PDE1C [7]): < 1 µM
- IC50 (PDE1B [9]): < 1 µM
Compound: CCOC[C@H]1CC[C@H](COc2nn3c(C4CCOCC4)ncc3c(=O)n2C)CC1 [Example 288, 2-{[trans-4-(ethoxymethyl)cyclohexyl]methoxy}-3-methyl-7-(tetrahydro-2H-pyran-4-yl)-imidazo[5,1-][1,2,4]triazin-4(3H)-one]
- Discrimination Index in novel object recognition test [8]: significant increase
